For orientation: MIC means the least concentration at which growth counts as inhibited.

The record followed here is publication PMC7727793, “Aggregation Behavior, Antibacterial Activity and Biocompatibility of Catanionic Assemblies Based on Amino Acid-Derived Surfactants” (International Journal of Molecular Sciences, 2020).

Entries after “also recorded” stand apart in the source; their conditions may differ. Bounds are passed on as bounds.

The nature of one data set: Solubility in water. Type of data set: physicochemical.
The subject of data set [1] is all microorganisms tested. Kind of data set: Broth microdilution MIC, statement for all microorganisms tested. It is filed as cell-based. On the procedure:
Antibacterial assays were conducted in vitro using the broth microdilution method. The minimum inhibitory concentration (MIC) is the smallest concentration of antibacterial agent at which bacterial growth is not observed. MIC values were determined for 4 Gram-positive bacteria (methicillin-resistant Staphylococcus aureus ATCC 43300 (MRSA), Bacillus subtilis ATCC 6633, Kocuria rhizophila 9341, Staphylococcus epidermidis ATCC 12228), 3 Gram-negative bacteria (Klebsiella pneumoniae ATCC 4532, Pseudomonas aeruginosa ATCC 27853, Escherichia coli ATCC 8739) and the fungal strain, Candida albicans ATCC 10231. Frozen stocks of bacteria were incubated on Muller Hinton agar plates for 24 h at 37 °C. From this culture, a bacterial suspension of 1 × 10^6 colony forming units CFU/mL was prepared in MHB (pH = 7.3). Two dilutions of pure surfactants and their binary mixtures were prepared in MH broth to obtain a final concentration ranging from 4 to 454 μM in the microtiter plates.
Then, 10 μL of nutrient broth culture of each microorganism was added to achieve a final density of ca. 5 × 10^5 CFU/mL. The cultures were incubated for 24 h at 37 °C. Every assay was repeated three times.
A general note: In broth dilution the organism is exposed to a series of concentrations in liquid medium.

As for `CCCCCCCCCCCC(=O)N[C@@H](CCCCNC(C)=O)C(=O)O` [C12C3L, N^α-lauroyl-N^εacetyl lysine], in “Solubility in water”, the Solubility in water entry is recorded as “too low to determine a CMC; also recorded: not soluble in water”. Also, in data set [1] (K. rhizophila, B. subtilis, S. epidermidis, S. aureus, K. pneumoniae, E. coli, P. aeruginosa, C. albicans, higher concentrations precipitated, read-out: MIC for all microorganisms tested), the minimum inhibitory concentration (MIC) is over 113 µM. Further, in data set [1] (tested microorganisms), the “Antibacterial activity (in words)” value is recorded as “did not show activity”.
